Results as given in PubChem BioAssay AID179 (DTP/NCI, 2004).
Active and inactive are the calls of the source.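 How the source made its calls: active means compounds giving half or more protection of infected cells from virus-caused growth loss, again on retest; inactive means the rest.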 Where a SMILES comes first, the peptide text is derived from it. The star is where a group is joined. Boc = CC(C)(C)OC(=O)*

System: CEM cells HIV-1 protection, formazan growth assay
Assay: NCI AIDS Antiviral Assay
Settings: for IC50: measured here: growth of uninfected CEM cells
Summary of the method: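 Five concentrations of each compound were applied to infected and uninfected human CEM cells. Protection from HIV-1 was judged from growth measured with a soluble formazan assay.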

SMILES | EC50 [µM] | IC50 [µM] | outcome
COc1ccc(NC(=O)/C(=C/c2ccc(N(CCC#N)CCC#N)cc2)NC(=O)c2cc([N+](=O)[O-])ccc2Cl)cc1 | > 23.4 | > 23.4 | –
NCC1OC(OC2C(CO)OC(OC3C(O)C(N)CC(N)C3OC3OC(CO)C(O)C(O)C3N)C2O)C(N)C(O)C1O (stereo unspecified) | – | – | inactive
CCOC(=O)c1ccc(CS(=O)c2ccc(C)cc2)c([N+](=O)[O-])c1 (stereo unspecified) | > 74.1 | 14.5 | –
Nc1ncnc2c1ncn2C1C=CC(=O)CC1 (stereo unspecified) | > 31.6 | 5.62 | –
CN(N)c1cc(=O)[nH]c(=O)[nH]1 | > 200 | > 200 | –
COC(=O)c1ccc(C(=O)NC(Cc2ccc(Oc3cc(CC(NC(=O)c4ccccc4C(=O)OC)C(=O)OC)ccc3OC)cc2)C(=O)OC)cc1 (stereo unspecified) | > 200 | 16.2 | –
CN1N(c2ccccc2)C(=O)C2=NC=C(C#N)C(=N)C21C (stereo unspecified) | > 200 | 64.6 | –
CCO/C=C/C=C(C(=O)OCC)C(=O)OCC | > 148 | > 148 | –
O=c1[nH]c(=O)n(C2CC(O)C(CO)O2)cc1OC/C=C/Cc1ccccc1 (stereo unspecified) | > 200 | > 200 | –
COc1ccc2c3ccc4c(c3n(C)c2c1)C(=O)C=CC4=O | > 3.55 | > 3.55 | –
CN1CC[C@@H](c2ccccc2)[C@@H](O)C1 | – | – | inactive
CSCC(NP1(=O)SC(NN=C(C)C)=NC1(C)C)C(=O)O (stereo unspecified) | > 708 | > 708 | –
Oc1ccc2c(c1)OCC1c3ccccc3OC21 (stereo unspecified) | – | – | inactive
N#C/C(=C\N1CC(=O)NC1=S)C(=O)c1ccc2ccccc2c1 | > 200 | 158 | –
C=CCC(C(=O)OC)C1(C(=O)OC)NCCc2c1[nH]c1ccccc21 (stereo unspecified) | > 324 | 178 | –
O=[N+]([O-])c1cccc(C2SCc3nc4ccccc4n32)c1 (stereo unspecified) | > 60.3 | 37.2 | –
CCN(CCCl)CCCNc1c2ccccc2nc2ccc(OC)cc12 | > 20 | 0.295 | –
COC(=O)Cc1c([C@H]2[C@H](CC(=O)OC)c3ccccc3N2C(C)=O)[nH]c2ccccc12 | > 200 | 97.7 | –
C[C@]12CC[C@H](O)C[C@@H]1CC[C@@H]1[C@@H]2CC[C@]2(C)c3nc4ccccc4cc3C[C@@H]12 | > 200 | 8.13 | –
CC(=O)NC1C(OCc2ccccc2)OC(CO)C(O)C1OCC(=O)N1CCCC1C(=O)N[C@@H](CCC(=O)NCCCCNc1c2ccccc2nc2cccc([N+](=O)[O-])c12)C(N)=O (stereo partly specified) | > 100 | 15.8 | –
CCOC(=O)C(=O)C(CCC(=O)c1ccc2ccccc2c1O)C(=O)OCC (stereo unspecified) | > 468 | 389 | –
CCOc1ccc(-n2nc(C(=O)O)cc(Cl)c2=O)cc1 | > 427 | 18.2 | –

SMILES | EC50 [µM] | IC50 [µM] | outcome
Cc1ccccc1C1N=C2Oc3ccccc3C=C2C(=O)N1 (stereo unspecified) | > 100 | 1.41 | –
O=C(OC1CN2CCC1CC2)N(c1ccccc1)c1ccccc1 (stereo unspecified) | > 200 | > 200 | –
N[C@@H](CSSC[C@H](N)C(=O)OCc1ccccc1)C(=O)OCc1ccccc1 | > 200 | 83.2 | –
CCOC(=O)C1(c2ccccc2)CCCNCC1 (stereo unspecified) | > 112 | > 112 | –
CCOC(=O)/C(=C/c1ccc(OC)cc1)P(=O)(OCC)OCC | > 380 | 20.4 | –
COc1cc(O)c2c(c1)C(O)C(O)CC1OC1C(=O)/C=C/CC(C)OC2=O (stereo unspecified) | > 75.9 | 0.977 | –
CN(C)c1ccc(/C=C/C(=O)C(C)(C)C)cc1Br | > 32.4 | 21.4 | –
CCCCCCCCCCCCCCCCC(C(=O)OC)S(=O)(=O)O (stereo unspecified) | > 200 | 123 | –
CC(C)(C)Nc1noc(=O)n1C(C)(C)C | > 100 | > 100 | –
O=C(O)c1ccsc1Cc1cccs1 | > 200 | > 200 | –
O=[N+]([O-])c1cccc(C2=NN(c3ccccc3)C3c4cc(Br)ccc4OCC23)c1 (stereo unspecified) | > 11.5 | > 11.5 | –
CC12NN=NC1C(=O)NC2=O (stereo unspecified) | > 200 | > 200 | –
NC1N=C(c2ccc(Cl)cc2)C2=C(N1)c1ccccc1CC2 (stereo unspecified) | > 200 | 6.76 | –
COc1cc(COC(=O)NC(Cc2cccs2)C(=O)O)c([N+](=O)[O-])cc1OC (stereo unspecified) | > 603 | 427 | –
c1ccc(Nc2nnnn2-c2ccccc2)cc1 | > 200 | > 200 | –
O=C1Cc2cn[nH]c2-c2ccccc2N1 | – | – | inactive
O=C1c2cccc3c([N+](=O)[O-])ccc(c23)C(=O)N1CC1CCCO1 (stereo unspecified) | > 2 | 0.195 | –
COc1cccc([N+](=O)[O-])c1N=O | > 200 | 102 | –
COc1cc(N=Nc2ccccc2C(=O)[O-])cc(/C=N/NC(=S)Nc2ccc(C)cc2)c1[O-].[Cu+].[Cu+] | – | – | inactive
COC1/C=C/OC2(C)Oc3c(C)c(O)c4c(O)c(c(CNCc5ccccc5)c(O)c4c3C2=O)NC(=O)/C(C)=C\C=C\C(C)C(O)C(C)C(O)C(C)C(OC(C)=O)C1C (stereo unspecified) | > 200 | 1.51 | –
Cn1c(=O)c2c(nc(N/N=c3/scc(-c4ccccc4)n3Cc3ccccc3)n2C)n(C)c1=O | > 200 | 12.3 | –
NC[C@H]1Nc2ccccc2[C@@H](O)C1O (stereo partly specified) | 47.9 | 1290 | –

SMILES | EC50 [µM] | IC50 [µM] | outcome
Cc1cc(Cl)ccc1NC(=O)C(=O)Cc1nc2ccc(C(=O)c3ccccc3)cc2[nH]c1=O | > 77.6 | > 77.6 | –
Cc1cccc(/C=N/NC(=S)NCCc2ccccn2)n1 | > 200 | 20.4 | –
COc1ccc2c(c1)CCC1C3(CCCC21C)OCCO3 (stereo unspecified) | > 100 | 20.4 | –
Cc1ccc(N2C(=O)/C(=C/c3ccc(N(CCC#N)CCC#N)cc3)CC2(O)c2ccccc2)cc1 (stereo unspecified) | > 7.94 | > 7.94 | –
COc1ccc(S(=O)(=O)N/N=C\c2cc([N+](=O)[O-])cc(I)c2O)c(OC)c1OC | > 468 | 67.6 | –
CC1(C)C2CCC3CC(CCC#N)CCC3C21C#N (stereo unspecified) | > 200 | 95.5 | –
COC(=O)Cn1c(=O)oc2nc(-c3ccccc3)cc(C(F)(F)F)c21 | > 200 | 129 | –
O=C(CSc1cc(-c2ccc(Cl)cc2)s[s+]1)c1ccccc1 | > 200 | 52.5 | –
S=c1[nH]c2ccccc2s1.[Zn+2] | > 26.3 | > 26.3 | –
N#CC(c1ccccc1)N(CCc1ccccc1)C(=O)c1ccccc1 (stereo unspecified) | > 126 | > 126 | –
N#CC(C#N)=Cc1ccc(SCc2ccc(Cl)cc2)cc1 | > 200 | 135 | –
O=S(=O)(O)C(O)C(O)S(=O)(=O)O (stereo unspecified) | > 200 | 79.4 | –
O=C(OCCN1CCCC1)c1cc2ccccc2n1-c1ccccc1 | > 200 | 46.8 | –
CN/N=C(\C(=O)Nc1ccc([N+](=O)[O-])cc1[N+](=O)[O-])C1NC(=O)NC1=O (stereo unspecified) | > 66.1 | > 66.1 | –
O=c1[nH]c(=O)n(C2CC(O)C(CO)O2)cc1OCCc1ccccc1 (stereo unspecified) | > 200 | > 200 | –
O=N/C(=C(\c1ccccc1)N1CCOCC1)c1ccccc1 | – | – | inactive
CC(C)(C)OC(=O)c1ccc(NCC2=C(Br)C(=O)C=CC2=O)cc1 | > 200 | 11.5 | –
CCCCCCCCCCCCOS(=O)(=O)O | > 871 | 195 | –
C=CCO/N=C/c1cc(NC(=S)c2ccoc2C)ccc1Cl | 0.0186 | 15.5 | –
CCc1cc2c(oc3cc(C)ccc32)c(=O)[nH]1 | > 100 | > 100 | –
N#CC(N)(C(=O)CCC(=O)Nc1cccc(Cl)c1)c1ccc(Cl)cc1 (stereo unspecified) | > 661 | > 661 | –
O=c1[nH]c(=S)c2cncnc2n1C1OC(CO)C(O)C1O (stereo unspecified) | > 200 | > 200 | –

SMILES | EC50 [µM] | IC50 [µM] | outcome
[N-]=[N+]=NC1(c2ccccc2)C(=O)Nc2ccccc2C1=O (stereo unspecified) | > 58.9 | 30.2 | –
NC(=O)c1ncn(CCN2CCN(C(=O)NCCCCCCNC(=O)N3CCN(CCn4cnc(C(N)=O)c4N)CC3)CC2)c1N | – | – | inactive
COc1ccccc1/C=C1/Sc2scc(CC(=O)Nc3ccccc3)[n+]2C1=O | – | 28.8 | inactive
COC(=O)NC(Cc1ccccc1)NC(=O)OC(C)(C)C (stereo unspecified) | > 200 | > 200 | –
c1cc2c(cc1C1OCC3C(c4ccc5c(c4)OCO5)OCC13)OCO2 (stereo unspecified) | > 100 | 58.9 | –
O=C(O)/C=C/CCC1SCC2NC(=O)NC21 (stereo unspecified) | > 107 | > 107 | –
CCN(CC)C(=S)SS(=O)(=O)c1ccc(F)cc1 | > 200 | 18.6 | –
COCOc1c(C(OCOC)c2cnc(Sc3ccccc3)n2C)ccc(OC)c1OC (stereo unspecified) | > 200 | 110 | –
CN1C(=O)[C@](O)(Cc2cccc(O)c2)N(C)C(=O)[C@@H]1Cc1c[nH]c2cccc([N+](=O)[O-])c12 | – | – | inactive
O=c1[nH]nc(-c2ccccc2)n1-c1ccncc1 | > 200 | > 200 | –
O=C1C2[C@@H](C(=O)N1c1ccc(Br)cc1)C13C(=CC2([N+](=O)[O-])[C@@H]2C(=O)N(c4ccc(Br)cc4)C(=O)[C@@H]21)c1ccccc1N3c1ccccc1 (stereo partly specified) | > 6.76 | > 6.76 | –
CCCCCCCCCCCCSS(=O)(=O)c1ccc(C)cc1 | > 20.4 | 13.8 | –
CC(NC(=O)C(NC(=O)OC(C)(C)C)C(C)C)C(=O)NCC(=O)O (stereo not drawn) (Boc-Val-Ala-Gly-OH; configuration not given here) | > 200 | > 200 | –
O=C(O)C1C2CCC(O2)C1C(=O)O (stereo unspecified) | > 1350 | > 1350 | –
Cc1c2ccccc2nc(CS(C)=O)[n+]1[O-] (stereo unspecified) | > 200 | > 200 | –
C[C@H](NC(=O)c1ccccc1SC(=O)NCCCCl)C(N)=O | 3.63 | 44.7 | –
CC(=O)NNc1nc(C)c(C(/C=C/c2ccc(/C=C/C(=N\NC(=O)c3ccncc3)c3sc(NNC(C)=O)nc3C)cc2)=N/NC(=O)c2ccncc2)s1 | > 13.2 | > 13.2 | –
Cc1cccc(C)c1NC(=O)C(=O)Nn1c(NN)nc2ccccc2c1=O | > 676 | 525 | –
O=C1N=NC(=O)c2ccccc21 | > 200 | > 200 | –
CC(=O)C1c2ccccc2C(C(C)=O)(c2ccccc2)C1c1ccccc1 (stereo unspecified) | > 200 | 38 | –
Cc1ccc(-n2cc(-c3ccc(Cl)cc3)c3c2N=CN2NC(c4cccs4)=NC32)cc1 (stereo unspecified) | > 100 | 42.7 | –
